US20250352550A1, “SUBSTITUTED FUROPYRIDINES FOR THERAPEUTIC USE” (MASARYKOVA UNIVERZITA, priority 2022, published 2025)

What was measured:
Type in all cases: biochemical
[1] = molecular target: T1, FLT3 (Homo sapiens, UniProt P36888); assay: HotSpot radiometric kinase assay (Reaction Biology), FLT3; conditions: 4 nM kinase, substrate ABLtide 20 μM, 33P-ATP, 120 minutes at room temperature
T1 construct: purchased Reaction Biology
T1 sequence (P36888 27-993): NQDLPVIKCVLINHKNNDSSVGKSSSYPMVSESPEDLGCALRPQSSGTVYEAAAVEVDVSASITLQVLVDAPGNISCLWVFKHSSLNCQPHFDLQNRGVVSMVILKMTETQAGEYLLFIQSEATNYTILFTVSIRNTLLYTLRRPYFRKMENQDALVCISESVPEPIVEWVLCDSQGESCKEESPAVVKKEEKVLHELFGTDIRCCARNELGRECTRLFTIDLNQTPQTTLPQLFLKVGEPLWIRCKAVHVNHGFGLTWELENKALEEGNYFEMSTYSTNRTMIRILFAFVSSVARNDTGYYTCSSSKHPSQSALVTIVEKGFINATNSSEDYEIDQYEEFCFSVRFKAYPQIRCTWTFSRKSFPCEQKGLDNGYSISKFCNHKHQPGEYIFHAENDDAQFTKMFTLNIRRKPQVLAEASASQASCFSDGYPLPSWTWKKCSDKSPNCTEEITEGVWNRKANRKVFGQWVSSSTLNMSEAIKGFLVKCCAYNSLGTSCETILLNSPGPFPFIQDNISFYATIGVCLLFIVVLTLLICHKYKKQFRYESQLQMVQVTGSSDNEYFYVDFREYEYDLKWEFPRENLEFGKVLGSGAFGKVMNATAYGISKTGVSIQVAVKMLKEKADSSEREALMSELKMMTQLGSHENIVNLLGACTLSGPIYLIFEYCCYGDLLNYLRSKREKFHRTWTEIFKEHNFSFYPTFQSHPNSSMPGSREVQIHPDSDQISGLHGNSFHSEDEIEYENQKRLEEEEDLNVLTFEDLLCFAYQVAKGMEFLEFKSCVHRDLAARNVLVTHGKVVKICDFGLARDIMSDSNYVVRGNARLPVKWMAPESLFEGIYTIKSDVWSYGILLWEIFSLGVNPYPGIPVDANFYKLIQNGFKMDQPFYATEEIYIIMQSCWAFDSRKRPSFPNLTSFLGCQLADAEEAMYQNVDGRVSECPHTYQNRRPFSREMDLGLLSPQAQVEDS
Summary of the method: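 Radiometric filter-binding assay with kinase and substrate in HEPES pH 7.5 buffer containing MgCl2, EGTA, Brij35, BSA, Na3VO4, DTT and 1% DMSO, started with ^33P-ATP and run 120 min at room temperature. Phosphorylated substrate on P81 paper counted; activity expressed as % of DMSO control, IC50 from curve fits.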

[2] = molecular target: T2, DDR1 (Homo sapiens, UniProt Q08345); assay: HotSpot radiometric kinase assay (Reaction Biology), DDR1; conditions: 200 nM kinase, substrate IRS1tide 20 μM, 33P-ATP, 120 minutes at room temperature
T2 construct: purchased Reaction Biology
T2 sequence (Q08345 19-913): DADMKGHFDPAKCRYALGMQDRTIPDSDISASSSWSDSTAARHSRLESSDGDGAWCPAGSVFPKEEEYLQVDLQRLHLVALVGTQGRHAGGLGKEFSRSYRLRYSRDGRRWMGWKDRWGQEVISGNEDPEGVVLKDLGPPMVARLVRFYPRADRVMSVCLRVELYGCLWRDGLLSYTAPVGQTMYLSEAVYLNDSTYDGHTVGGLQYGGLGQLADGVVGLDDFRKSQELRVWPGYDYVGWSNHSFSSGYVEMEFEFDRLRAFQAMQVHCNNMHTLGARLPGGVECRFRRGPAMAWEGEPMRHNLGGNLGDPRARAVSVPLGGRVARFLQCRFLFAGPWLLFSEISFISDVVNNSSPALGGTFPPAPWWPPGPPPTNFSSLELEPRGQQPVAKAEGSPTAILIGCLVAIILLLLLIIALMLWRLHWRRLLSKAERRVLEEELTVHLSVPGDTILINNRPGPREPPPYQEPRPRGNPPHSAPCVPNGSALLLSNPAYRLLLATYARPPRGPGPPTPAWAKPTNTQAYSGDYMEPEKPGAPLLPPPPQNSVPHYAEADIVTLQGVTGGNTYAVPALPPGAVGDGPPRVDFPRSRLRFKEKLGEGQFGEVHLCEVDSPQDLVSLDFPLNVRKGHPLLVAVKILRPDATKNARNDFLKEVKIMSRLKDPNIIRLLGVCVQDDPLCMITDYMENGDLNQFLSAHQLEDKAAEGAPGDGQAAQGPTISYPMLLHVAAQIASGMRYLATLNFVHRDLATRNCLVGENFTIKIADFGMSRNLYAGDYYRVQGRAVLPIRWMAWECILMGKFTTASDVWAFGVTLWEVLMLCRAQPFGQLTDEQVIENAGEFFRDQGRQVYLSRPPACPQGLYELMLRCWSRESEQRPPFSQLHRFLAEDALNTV
Summary of the method: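 Radiometric filter-binding assay: kinase and substrate in 20 mM HEPES pH 7.5, 10 mM MgCl2, 1 mM EGTA, 2 mM DTT, 1% DMSO. Reaction started with ^33P-ATP (0.01 μCi/μL final), run 120 minutes at room temperature. Activity expressed as percent of DMSO control; IC50 from curve fits.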

[3] = molecular target: T3, KHS/MAP4K5 (Homo sapiens, UniProt Q9Y4K4); assay: HotSpot radiometric kinase assay (Reaction Biology), KHS/MAP4K5; conditions: 1.5 nM kinase, substrate MBP 20 μM, 33P-ATP, 120 minutes at room temperature
T3 construct: purchased Reaction Biology
T3 sequence (Q9Y4K4 whole entry): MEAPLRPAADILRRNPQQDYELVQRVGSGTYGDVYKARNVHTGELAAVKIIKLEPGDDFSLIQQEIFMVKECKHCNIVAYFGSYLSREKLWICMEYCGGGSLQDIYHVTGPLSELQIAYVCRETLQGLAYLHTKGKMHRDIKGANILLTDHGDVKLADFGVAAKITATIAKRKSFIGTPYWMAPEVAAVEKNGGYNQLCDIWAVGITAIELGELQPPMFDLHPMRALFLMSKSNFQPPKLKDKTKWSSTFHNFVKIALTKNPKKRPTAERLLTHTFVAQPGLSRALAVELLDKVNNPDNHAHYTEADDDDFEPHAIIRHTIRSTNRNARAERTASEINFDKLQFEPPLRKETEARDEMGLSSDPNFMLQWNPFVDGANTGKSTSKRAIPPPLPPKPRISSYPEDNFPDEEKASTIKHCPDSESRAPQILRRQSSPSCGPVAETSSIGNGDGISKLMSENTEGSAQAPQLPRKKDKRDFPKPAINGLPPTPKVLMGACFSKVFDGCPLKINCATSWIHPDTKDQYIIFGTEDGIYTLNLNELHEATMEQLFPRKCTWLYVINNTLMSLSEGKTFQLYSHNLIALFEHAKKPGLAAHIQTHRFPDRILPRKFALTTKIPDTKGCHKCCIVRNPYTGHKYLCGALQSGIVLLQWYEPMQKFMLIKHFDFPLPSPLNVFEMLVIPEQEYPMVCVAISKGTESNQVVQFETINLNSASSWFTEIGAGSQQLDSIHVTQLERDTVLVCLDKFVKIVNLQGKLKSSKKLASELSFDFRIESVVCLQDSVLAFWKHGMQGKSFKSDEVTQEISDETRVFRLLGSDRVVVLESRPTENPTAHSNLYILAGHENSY
Protocol: The compounds were profiled in the HotSpot radiometric assays (Reaction Biology).
Briefly, • 1. Substrate indicated in Table 1 was dissolved in freshly prepared reaction buffer (20 mM HEPES (pH 7.5), 10 mM MgCl2, 1 mM EGTA, 0.01% Brij35, 0.02 mg/ml BSA, 0.1 mM Na3VO4, 2 mM DTT, 1% DMSO) at the concentration indicated in Table 1. • 2. Corresponding kinase (concentration indicated in Table 1) was added and the mixture was gently mixed. • 3. Tested compound dissolved in DMSO was added into the kinase reaction mixture. • 4. ^33P-ATP (specific activity 0.01 μCi/μL final) was added into the reaction mixture to initiate the reaction. • 5. The kinase reaction was incubated for 120 minutes at room temperature. • 6. Reaction mixture was spotted onto P81 ion exchange paper (Whatman K 3698-915). • 7. The filters were extensively washed with […]. • 7. The radioactive phosphorylated substrate remaining on the filter paper was measured.
Kinase activity data were expressed as the percent remaining kinase activity in tested samples compared to the vehicle (DMSO) reactions. IC50 values and curve fits were obtained using Prism4 Software (GraphPad).
Table 2 summarizes the inhibitory activities of indicated compounds tested in the in vitro kinase assays described above.

| IC50 [1] [nM] | IC50 [2] [nM] | IC50 [3] [nM] | Compound |
| --- | --- | --- | --- |
| 73 | 272 | 896 | CN(C)S(=O)(=O)c1cccc(-c2coc3cc(-c4ccc(N5CCNCC5)cc4)cnc23)c1 [Preparative Example 61, N,N-dimethyl-3-(6-(4-(piperazin-1-yl)phenyl)furo[3,2-b]pyridin-3-yl)benzenesulfonamide] |
| 62 | 301 | 456 | NCc1cccc(-c2coc3cc(-c4ccc(N5CCNCC5)cc4)cnc23)c1 [Preparative Example 87, (3-(6-(4-(piperazin-1-yl)phenyl)furo[3,2-b]pyridin-3-yl)phenyl)methanamine] |
| 24 | 163 | 394 | CN1CCN(c2ccc(-c3cnc4c(-c5cccc(CO)c5)coc4c3)cc2)CC1 [Preparative Example 90, (3-(6-(4-(4-methylpiperazin-1-yl)phenyl)furo[3,2-b]pyridin-3-yl)phenyl)methanol] |
| 77 | 155 | 641 | CC(=O)OCc1cccc(-c2coc3cc(-c4ccc(N5CCN(C)CC5)cc4)cnc23)c1 [Preparative Example 94, 3-(6-(4-(4-methylpiperazin-1-yl)phenyl)furo[3,2-b]pyridin-3-yl)benzyl acetate] |
| 53 | 187 | 934 | CNc1cccc(-c2coc3cc(-c4ccc(N5CCN(C)CC5)cc4)cnc23)c1 [Preparative Example 110, N-methyl-3-(6-(4-(4-methylpiperazin-1-yl)phenyl)furo[3,2-b]pyridin-3-yl)aniline] |
| 151 | 361 | 737 | c1cc(SC2CCC2)cc(-c2coc3cc(-c4ccc(N5CCNCC5)cc4)cnc23)c1 [Preparative Example 164, 3-(3-(cyclobutylthio)phenyl)-6-(4-(piperazin-1-yl)phenyl)furo[3,2-b]pyridine] |
| 31 | 120 | 889 | Fc1cccc(-c2coc3cc(-c4ccc(N5CCNCC5)cc4)cnc23)c1 [Preparative Example 170, 3-(3-fluorophenyl)-6-(4-(piperazin-1-yl)phenyl)furo[3,2-b]pyridine] |
| 21 | 528 | 167 | CN1CCN(c2ccc(-c3cnc4c(-c5cc(C(N)=O)ccc5F)coc4c3)cc2)CC1 [Preparative Example 211, 4-fluoro-3-(6-(4-(4-methylpiperazin-1-yl)phenyl)furo[3,2-b]pyridin-3-yl)benzamide] |
| 56 | 27 | 756 | CN1CCN(c2ccc(-c3cnc4c(-c5cc(F)cc(C(N)=O)c5)coc4c3)cc2)CC1 [Preparative Example 219, 3-fluoro-5-{6-[4-(4-methylpiperazin-1-yl)phenyl]furo[3,2-b]pyridin-3-yl}benzamide] |
| 729 | 308 | 284 | CN1CCN(c2ccc(-c3cnc4c(Oc5ccccc5)coc4c3)cc2)CC1 [Preparative Example 229, 1-methyl-4-(4-{3-phenoxyfuro[3,2-b]pyridin-6-yl}phenyl)piperazine] |
